Here are results for 25 molecules from patent US12116358B2, “Substituted indoles and methods of use thereof” (EPIZYME, INC., priority 2018, dated 2024).

For one experiment, the system named is H3K36me3 in A549 cells. Briefly: In-Cell Western (ICW) assay of SETD2 inhibitors (A549 assay). It is filed as cell-based, human. The note with it: Homo sapiens; A549 cells; read-out: SETD2 A549. The essentials:
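A549 cells seeded at 4,000/well onto compound and incubated 3 days at 37° C. Methanol-fixed cells stained overnight at 4° C with anti-H3K36me3 (1:1000), then IRDye 800CW secondary with DRAQ5 DNA counterstain. Plates read by Licor imaging at 700 and 800 channels.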
As for `Cc1ccc(F)c2cc(C(=O)Nc3cccc(N4CCC5(CC4)CNC5)c3)[nH]c12` [compound 179], the IC50 came to 400 nM.

`Cc1ccc(F)c2cc(C(=O)N[C@@H]3CCCC(N4CCC5(CCNC5=O)CC4)C3)[nH]c12` (some centres unmarked) [compound 874]: the IC50 is more than 2000 nM.

With `Cc1cccc2cc(C(=O)Nc3cccc(N4CCN(S(=O)(=O)CCN)CC4)c3)[nH]c12` [compound 449], the IC50 was determined as 5500 nM.

Consider `Cc1ccc(F)c2cc(C(=O)Nc3cccc(C4CCCCN4)c3)[nH]c12` (centres unmarked) [compound 438], for which the IC50 turned out to be 4900 nM.

Take `CC(=O)N1[C@H](C)CN([C@@H]2CCC[C@@H](NC(=O)c3cc4c(F)ccc(C)c4[nH]3)C2)C[C@H]1C` [compound 1193]: the IC50 was more than 2000 nM.

Take `Cc1cc(C(=O)N[C@@H]2CC[C@H]2N)cnc1C(NC(=O)c1cc2cccc(C)c2[nH]1)C1CC1` (some centres unmarked) [compound 455]: the IC50 stood at 5900 nM.

Regarding `CNc1cccc(-c2cccc(NC(=O)c3cc4c(F)ccc(C)c4[nH]3)c2)n1` [compound 326], the IC50 was determined as 1600 nM.

Consider `CCN(CC)Cc1cccc(NC(=O)c2cc3cccc(C)c3[nH]2)c1` [compound 486], for which the IC50 is 10800 nM.

Turning to `Cc1ccc(F)c2cc(C(=O)Nc3cccc([C@H]4CCN5C(=O)CC[C@@H]5C4)c3)[nH]c12` [compound 166], the IC50 is 300 nM.

`Cc1ccc(F)c2cc(C(=O)N[C@@H]3CCC[C@H](c4nccc(=O)[nH]4)C3)[nH]c12` [compound 1013]: the IC50 was more than 2000 nM.

For `CC(=O)N1CCN([C@H]2CCC[C@@H](NC(=O)c3cc4c(F)ccc(C)c4[nH]3)C2)[C@H](C)C1` [compound 1092], the IC50 came to 800 nM.

Consider `Cc1cccc2cc(C(=O)Nc3cccc(N4CCN(CCN)CC4)c3)[nH]c12` [compound 467], for which the IC50 came out at 7300 nM.

For the molecule `CC(=O)N1[C@H](C)CN([C@@H]2CCC[C@@H](NC(=O)c3cc4c(F)ccc(C)c4[nH]3)C2)C[C@@H]1C` [compound 1096], the IC50 was more than 2000 nM.

As to `Cc1ccc(F)c2cc(C(=O)N[C@@H]3CCC[C@H](c4cc(=O)[nH]cn4)C3)[nH]c12` [compound 1068], the IC50 turned out to be 700 nM.

Turning to `CC(=O)N1CCN([C@@H]2CCC[C@@H](NC(=O)c3cc4c(F)ccc(C)c4[nH]3)C2)[C@H](C)C1` [compound 1091], the IC50 is more than 2000 nM.

In the case of `Cc1ccc(F)c2cc(C(=O)N[C@@H]3CCC[C@@H](N4CCNC(=O)CC4)C3)[nH]c12` [compound 933], the IC50 was more than 2000 nM.

For the molecule `CC(=O)N(CCO)C1CCN([C@@H]2CCC[C@@H](NC(=O)c3cc4c(F)ccc(C)c4[nH]3)C2)C1` (some centres unmarked) [compound 873], the IC50 was more than 2000 nM.

On to `Cc1ccc(F)c2cc(C(=O)N[C@@H]3CCC[C@@H](N4CCN(C5CCOC5)CC4)C3)[nH]c12` (some centres unmarked) [compound 925], for which the IC50 is more than 2000 nM.

With `Cc1ccc(F)c2cc(C(=O)Nc3cccc(N4CCC(O)(CN(C)C)CC4)c3)[nH]c12` [compound 254], the IC50 worked out at 600 nM.

For the molecule `Cc1ccc(F)c2cc(C(=O)Nc3cccc(N4CCNCC4=O)c3)[nH]c12` [compound 321], the IC50 is 1500 nM.

With `CC(=O)N1CCCC(c2cccc(NC(=O)c3cc4c(F)ccc(C)c4[nH]3)c2)C1` (centres unmarked) [compound 123], the IC50 turned out to be 300 nM.

`CCN([C@@H]1CCN([C@H]2CCC[C@@H](NC(=O)c3cc4c(F)ccc(C)c4[nH]3)C2)C1)S(C)(=O)=O` [compound 1054]: the IC50 stood at 90 nM.

Consider `CCOC(=O)CC(NC(=O)c1cc2cccc(C)c2[nH]1)c1ccccc1` (centres unmarked) [compound 586], for which the IC50 was more than 25000 nM.

As for `Cc1ccc(F)c2cc(C(=O)Nc3cccc(-c4cccc5nccn45)c3)[nH]c12` [compound 272], the IC50 worked out at 800 nM.

As to `CN/C(=N\C#N)N1CCN([C@H]2CCC[C@@H](NC(=O)c3cc4c(F)ccc(C)c4[nH]3)C2)CC1` [compound 1114], the IC50 stood at 1600 nM.

The target in a further experiment is T1, SETD2(1434-1711) (Homo sapiens, UniProt Q9BYW2).
T1 construct: SETD2 (1434-1711) Assay; catalogue N/A
T1 sequence (Q9BYW2 1434-1711): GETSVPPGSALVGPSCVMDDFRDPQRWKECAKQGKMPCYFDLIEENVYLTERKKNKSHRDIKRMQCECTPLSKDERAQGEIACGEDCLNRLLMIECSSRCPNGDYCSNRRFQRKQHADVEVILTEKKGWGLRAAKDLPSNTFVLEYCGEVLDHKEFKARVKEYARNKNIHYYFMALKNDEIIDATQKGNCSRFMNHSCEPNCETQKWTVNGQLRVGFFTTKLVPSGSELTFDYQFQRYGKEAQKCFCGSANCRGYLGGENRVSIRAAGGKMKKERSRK
Put plainly: SETD2 (1434-1711) assay. To be noted: read-out: SETD2 (1434-1711). It is filed as biochemical.
Take `Cc1ccc(F)c2cc(C(=O)Nc3cccc(N4CCC5(CC4)CNC5)c3)[nH]c12` [compound 179]: the IC50 came to 10 nM.

As to `Cc1ccc(F)c2cc(C(=O)N[C@@H]3CCCC(N4CCC5(CCNC5=O)CC4)C3)[nH]c12` (some centres unmarked) [compound 874], the IC50 is 400 nM.

Take `Cc1cccc2cc(C(=O)Nc3cccc(N4CCN(S(=O)(=O)CCN)CC4)c3)[nH]c12` [compound 449]: the IC50 turned out to be 200 nM.

For the molecule `Cc1ccc(F)c2cc(C(=O)Nc3cccc(C4CCCCN4)c3)[nH]c12` (centres unmarked) [compound 438], the IC50 worked out at 300 nM.

With `CC(=O)N1[C@H](C)CN([C@@H]2CCC[C@@H](NC(=O)c3cc4c(F)ccc(C)c4[nH]3)C2)C[C@H]1C` [compound 1193], the IC50 worked out at 600 nM.

`Cc1cc(C(=O)N[C@@H]2CC[C@H]2N)cnc1C(NC(=O)c1cc2cccc(C)c2[nH]1)C1CC1` (some centres unmarked) [compound 455]: the IC50 is 400 nM.

Regarding `CNc1cccc(-c2cccc(NC(=O)c3cc4c(F)ccc(C)c4[nH]3)c2)n1` [compound 326], the IC50 turned out to be 200 nM.

On to `CCN(CC)Cc1cccc(NC(=O)c2cc3cccc(C)c3[nH]2)c1` [compound 486], for which the IC50 is 1800 nM.

For the molecule `Cc1ccc(F)c2cc(C(=O)Nc3cccc([C@H]4CCN5C(=O)CC[C@@H]5C4)c3)[nH]c12` [compound 166], the IC50 stood at 70 nM.

Turning to `Cc1ccc(F)c2cc(C(=O)N[C@@H]3CCC[C@H](c4nccc(=O)[nH]4)C3)[nH]c12` [compound 1013], the IC50 turned out to be 706 nM.

In the case of `CC(=O)N1CCN([C@H]2CCC[C@@H](NC(=O)c3cc4c(F)ccc(C)c4[nH]3)C2)[C@H](C)C1` [compound 1092], the IC50 was determined as 800 nM.

As for `Cc1cccc2cc(C(=O)Nc3cccc(N4CCN(CCN)CC4)c3)[nH]c12` [compound 467], the IC50 came out at 400 nM.

As to `CC(=O)N1[C@H](C)CN([C@@H]2CCC[C@@H](NC(=O)c3cc4c(F)ccc(C)c4[nH]3)C2)C[C@@H]1C` [compound 1096], the IC50 was determined as 2400 nM.

Regarding `Cc1ccc(F)c2cc(C(=O)N[C@@H]3CCC[C@H](c4cc(=O)[nH]cn4)C3)[nH]c12` [compound 1068], the IC50 was determined as 100 nM.

Turning to `CC(=O)N1CCN([C@@H]2CCC[C@@H](NC(=O)c3cc4c(F)ccc(C)c4[nH]3)C2)[C@H](C)C1` [compound 1091], the IC50 is 5800 nM.

With `Cc1ccc(F)c2cc(C(=O)N[C@@H]3CCC[C@@H](N4CCNC(=O)CC4)C3)[nH]c12` [compound 933], the IC50 was 700 nM.

As to `CC(=O)N(CCO)C1CCN([C@@H]2CCC[C@@H](NC(=O)c3cc4c(F)ccc(C)c4[nH]3)C2)C1` (some centres unmarked) [compound 873], the IC50 was 1100 nM.

Take `Cc1ccc(F)c2cc(C(=O)N[C@@H]3CCC[C@@H](N4CCN(C5CCOC5)CC4)C3)[nH]c12` (some centres unmarked) [compound 925]: the IC50 turned out to be 8800 nM.

On to `Cc1ccc(F)c2cc(C(=O)Nc3cccc(N4CCC(O)(CN(C)C)CC4)c3)[nH]c12` [compound 254], for which the IC50 came to 60 nM.

`Cc1ccc(F)c2cc(C(=O)Nc3cccc(N4CCNCC4=O)c3)[nH]c12` [compound 321]: the IC50 is 200 nM.

Regarding `CC(=O)N1CCCC(c2cccc(NC(=O)c3cc4c(F)ccc(C)c4[nH]3)c2)C1` (centres unmarked) [compound 123], the IC50 came to 50 nM.

Consider `CCN([C@@H]1CCN([C@H]2CCC[C@@H](NC(=O)c3cc4c(F)ccc(C)c4[nH]3)C2)C1)S(C)(=O)=O` [compound 1054], for which the IC50 stood at 10 nM.

As for `CCOC(=O)CC(NC(=O)c1cc2cccc(C)c2[nH]1)c1ccccc1` (centres unmarked) [compound 586], the IC50 was 36400 nM.

On to `Cc1ccc(F)c2cc(C(=O)Nc3cccc(-c4cccc5nccn45)c3)[nH]c12` [compound 272], for which the IC50 came to 100 nM.

Regarding `CN/C(=N\C#N)N1CCN([C@H]2CCC[C@@H](NC(=O)c3cc4c(F)ccc(C)c4[nH]3)C2)CC1` [compound 1114], the IC50 turned out to be 40 nM.
